The values that follow come from patent US20240199587A1, “HETEROCYCLIC COMPOUNDS” (Hoffmann-La Roche Inc., priority 2021, published 2024).

Molecules are shown by their SMILES.

The target in this assay is T1, MAGL (Homo sapiens, UniProt Q99685).
T1 sequence (Q99685 1-303): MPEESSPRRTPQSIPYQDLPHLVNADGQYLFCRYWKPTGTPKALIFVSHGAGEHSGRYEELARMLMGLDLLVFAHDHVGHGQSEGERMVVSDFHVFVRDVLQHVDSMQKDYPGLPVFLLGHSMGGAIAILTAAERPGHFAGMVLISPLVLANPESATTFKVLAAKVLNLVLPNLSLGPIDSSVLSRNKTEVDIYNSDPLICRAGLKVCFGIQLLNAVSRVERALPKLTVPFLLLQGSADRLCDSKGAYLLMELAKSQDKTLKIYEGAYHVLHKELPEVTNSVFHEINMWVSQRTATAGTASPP
The assay can be described thus: 2-AG assay (MAGL inhibitory activity, hydrolysis of 2-arachidonoylglycerol to arachidonic acid followed by mass spectrometry). The format is biochemical. The note with it: 8 μM 2-arachidonoylglycerol, 15 min pre-incubation, 30 min incubation at RT, RapidFire MS readout. The text has this:
Compounds of formula (I) were profiled for MAGL inhibitory activity by determining the enzymatic activity by following the hydrolysis of the natural substrate 2-arachidonoylglycerol (2-AG) resulting in arachidonic acid, which can be followed by mass spectrometry. This assay is hereinafter abbreviated “2-AG assay”.
Compounds of formula (I) were profiled for MAGL inhibitory activity by determining the enzymatic activity by following the hydrolysis of the natural substrate 2-arachidonoylglycerol (2-AG) resulting in arachidonic acid, which can be followed by mass spectrometry. This assay is hereinafter abbreviated “2-AG assay”. The 2-AG assay was carried out in 384 well polypropylene assay plates. […] Compound dilutions were added to MAGL protein in assay buffer (50 mM TRIS, 1 mM EDTA, 0.01% (v/v) Tween-20, 2.5% (v/v) DMSO). After shaking, the plate was incubated for 15 min at RT. To start the reaction, 2-arachidonoylglycerol in assay buffer was added. The final concentrations in the assay was […] for MAGL protein and 8 μM 2-arachidonoylglyerol. After shaking and 30 min incubation at RT, the reaction was quenched by the addition of two assay volumes of acetonitrile containing 4 μM of d8-arachidonic acid. The amount of arachidonic acid formed was traced by an online SPE system (Agilent Rapidfire) coupled to a triple quadrupole mass spectrometer. A C18 SPE cartridge (Agilent G9205A) was used in an acetonitrile/water liquid setup. The mass spectrometer was operated in negative electrospray mode following the mass transitions 303.1→259.1 for arachidonic acid and 311.1→267.0 for d8-arachidonic acid. The activity of the compounds was calculated based on the ratio of intensities [arachidonic acid/d8-arachidonic acid].
Regarding `CC(C)(C)c1nc(-c2ccc(C(=O)N3CC4(CC(n5ccc(C(F)(F)F)n5)C4)C3)cc2)no1` [Example 5, [4-(5-tert-butyl-1,2,4-oxadiazol-3-yl)phenyl]-[6-[3-(trifluoromethyl)pyrazol-1-yl]-2-azaspiro[3.3]heptan-2-yl]methanone], the IC50 (as a rule, the concentration at which inhibition is half-maximal) turned out to be 85.9 nM.
The figure for `CC(C)(C)c1nc(-c2ccc(C(=O)N3CC4(CC(n5cc(Cl)cn5)C4)C3)cc2)no1` [Example 6, [4-(5-tert-butyl-1,2,4-oxadiazol-3-yl)phenyl]-[6-(4-chloropyrazol-1-yl)-2-azaspiro[3.3]heptan-2-yl]methanone] is 191 nM.
As to `CC(C)(C)c1nc(-c2ccc(C(=O)N3CC4(CC(n5cc(C6CC6)cn5)C4)C3)cc2)no1` [Example 7, [4-(5-tert-butyl-1,2,4-oxadiazol-3-yl)phenyl]-[6-(4-cyclopropylpyrazol-1-yl)-2-azaspiro[3.3]heptan-2-yl]methanone], half-maximal inhibition (IC50) required 215 nM.
With `CC(C)(C)c1nc(-c2ccc(C(=O)N3CC4(CC(n5ccc(C#N)n5)C4)C3)cc2)no1` [Example 8, 1-[2-[4-(5-tert-butyl-1,2,4-oxadiazol-3-yl)benzoyl]-2-azaspiro[3.3]heptan-6-yl]pyrazole-3-carbonitrile], 485 nM corresponded to half-maximal inhibition (IC50).
The figure for `CC(C)(C)c1nc(-c2ccc(C(=O)N3CC4(CC(n5ccc(C6(C)CC6)n5)C4)C3)cc2)no1` [Example 9, [4-(5-tert-butyl-1,2,4-oxadiazol-3-yl)phenyl]-[6-[3-(1-methylcyclopropyl)pyrazol-1-yl]-2-azaspiro[3.3]heptan-2-yl]methanone] is 613 nM; for `CC(C)(C)c1nc(-c2ccc(C(=O)N3CC4(CC(n5nccc5C5(C)CC5)C4)C3)cc2)no1` [Example 10, [4-(5-tert-butyl-1,2,4-oxadiazol-3-yl)phenyl]-[6-[5-(1-methylcyclopropyl)pyrazol-1-yl]-2-azaspiro[3.3]heptan-2-yl]methanone] it is 33.1 nM.
In turn, `COc1cnn(C2CC3(C2)CN(C(=O)c2ccc(-c4noc(C(C)(C)C)n4)cc2)C3)c1` [Example 11, [4-(5-tert-butyl-1,2,4-oxadiazol-3-yl)phenyl]-[6-(4-methoxypyrazol-1-yl)-2-azaspiro[3.3]heptan-2-yl]methanone] gave an IC50 of 1290 nM.
Consider `CC(C)(C)c1nc(-c2ccc(C(=O)N3CC4(CC(n5cc6c(n5)CCCC6)C4)C3)cc2)no1` [Example 12, [4-(5-tert-butyl-1,2,4-oxadiazol-3-yl)phenyl]-[6-(4,5,6,7-tetrahydroindazol-2-yl)-2-azaspiro[3.3]heptan-2-yl]methanone], for which half-maximal inhibition (IC50) required 36.7 nM.
The figure for `COc1ccn(C2CC3(C2)CN(C(=O)c2ccc(-c4noc(C(C)(C)C)n4)cc2)C3)n1` [Example 13, [4-(5-tert-butyl-1,2,4-oxadiazol-3-yl)phenyl]-[6-(3-methoxypyrazol-1-yl)-2-azaspiro[3.3]heptan-2-yl]methanone] is 152 nM.
`CC(C)(C)c1nc(-c2ccc(C(=O)N3CC4(CC(n5cc6c(n5)CCOC6)C4)C3)cc2)no1` [Example 14, [4-(5-tert-butyl-1,2,4-oxadiazol-3-yl)phenyl]-[6-(6,7-dihydro-4H-pyrano[4,3-c]pyrazol-2-yl)-2-azaspiro[3.3]heptan-2-yl]methanone] displayed an IC50 of 197 nM.
Take `CC(C)(C)c1nc(-c2ccc(C(=O)N3CC4(CC(n5cc(F)cn5)C4)C3)cc2)no1` [Example 15, [4-(5-tert-butyl-1,2,4-oxadiazol-3-yl)phenyl]-[6-(4-fluoropyrazol-1-yl)-2-azaspiro[3.3]heptan-2-yl]methanone]: it took 2670 nM to reach half-maximal inhibition (IC50).
The figure for `CC(C)(C)c1nc(-c2ccc(C(=O)N3CC4(CC(n5nccc5C(F)(F)F)C4)C3)cc2)no1` [Example 16, [4-(5-tert-buty1-1,2,4-oxadiazol-3-yl)phenyl]-[6-[5-(trifluoromethyl)pyrazol-1-yl]-2-azaspiro[3.3]heptan-2-yl]methanone] is 2810 nM; for `CC(C)(C)c1nc(-c2ccc(C(=O)N3CC4(CC(n5ncnc5C5CC5)C4)C3)cc2)no1` [Example 17, [4-(5-tert-butyl-1,2,4-oxadiazol-3-yl)phenyl]-[6-(5-cyclopropyl-1,2,4-triazol-1-yl)-2-azaspiro[3.3]heptan-2-yl]methanone] it is 3360 nM.
In the case of `CC(C)(C)c1nc(-c2ccc(C(=O)N3CC4(CC(n5ncc6c5CCOC6)C4)C3)cc2)no1` [Example 18, [4-(5-tert-butyl-1,2,4-oxadiazol-3-yl)phenyl]-[6-(6,7-dihydro-4H-pyrano[4,3-c]pyrazol-1-yl)-2-azaspiro[3.3]heptan-2-yl]methanone] it was 3730 nM.
The figure for `COc1ccnn1C1CC2(C1)CN(C(=O)c1ccc(-c3noc(C(C)(C)C)n3)cc1)C2` [Example 19, [4-(5-tert-butyl-1,2,4-oxadiazol-3-yl)phenyl]-[6-(5-methoxypyrazol-1-yl)-2-azaspiro[3.3]heptan-2-yl]methanone] is 4170 nM; for `CC(C)(C)c1nc(-c2ccc(C(=O)N3CC4(CC(n5cnc(C#N)n5)C4)C3)cc2)no1` [Example 20, 1-[2-[4-(5-tert-butyl-1,2,4-oxadiazol-3-yl)benzoyl]-2-azaspiro[3.3]heptan-6-yl]-1,2,4-triazole-3-carbonitrile] it is 82 nM; for `CC(C)(C)c1nc(-c2ccc(C(=O)N3CC4(CC(n5ncc6c5CCCC6)C4)C3)cc2)no1` [Example 22, [4-(5-tert-butyl-1,2,4-oxadiazol-3-yl)phenyl]-[6-(4,5,6,7-tetrahydroindazol-1-yl)-2-azaspiro[3.3]heptan-2-yl]methanone] it is 451 nM.
`Cc1ccc(C2CC3(C2)CN(C(=O)c2ccc(-c4noc(C(C)(C)C)n4)cc2)C3)cn1` [Example 23, [4-(5-tert-butyl-1,2,4-oxadiazol-3-yl)phenyl]−[6-(6-methyl-3-pyridyl)-2-azaspiro[3.3]heptan-2-yl]methanone] returned an IC50 of 229 nM.
`Cc1cc(C(=O)N2CC3(CC(n4cnc(C5CC5)n4)C3)C2)cnc1OCC1(C(F)(F)F)CC1` [Example 24, [6-(3-cyclopropyl-1,2,4-triazol-1-yl)-2-azaspiro[3.3]heptan-2-yl]-[5-methyl-6-[[1-(trifluoromethyl)cyclo-propyl]methoxy]-3-pyridyl]methanone] showed a 50% inhibitory concentration (IC50) of 7.7 nM.
In turn, `Cc1cc(C(=O)N2CC3(CC(n4cnc(C5CC5)c4)C3)C2)cnc1OCC1(C(F)(F)F)CC1` [Example 25, [6-(4-cyclopropylimidazol-1-yl)-2-azaspiro[3.3]heptan-2-yl]-[5-methyl-6-[[1-(trifluoromethyl)cyclo-propyl]methoxy]-3-pyridyl]methanone] displayed an IC50 of 12.2 nM.
In turn, `O=C(c1cnc(OCC2(C(F)(F)F)CC2)c(F)c1)N1CC2(CC(n3cnc(C4CC4)n3)C2)C1` [Example 26, [6-(3-cyclopropyl-1,2,4-triazol-1-yl)-2-azaspiro[3.3]heptan-2-yl]−[5-fluoro-6-[[1-(trifluoromethyl)cyclopropyl]methoxy]-3-pyridyl]methanone] came in with a half-maximal inhibitory concentration (IC50) of 19.8 nM.
The figure for `Cc1nc(C(=O)N2CC3(CC(n4cnc(C5CC5)n4)C3)C2)cnc1OCC1(C(F)(F)F)CC1` [Example 27, [6-(3-cyclopropyl-1,2,4-triazol-1-yl)-2-azaspiro[3.3]heptan-2-yl]-[6-methyl-5-[[1-(trifluoromethyl)cyclo-propyl]methoxy]pyrazin-2-yl]methanone] is 26.5 nM.
The figure for `O=C(c1cnc(OCC2(C(F)(F)F)CC2)c(F)c1)N1CC2(CC(n3cnc(C4CC4)c3)C2)C1` [Example 28, [6-(4-cyclopropylimidazol-1-yl)-2-azaspiro[3.3]heptan-2-yl]-[5-fluoro-6-[[1-(trifluoromethyl)cyclo-propyl]methoxy]-3-pyridyl]methanone] is 50 nM; for `CC1(COc2ncc(C(=O)N3CC4(CC(n5cnc(C6CC6)n5)C4)C3)cc2F)CC1` [Example 29, [6-(3-cyclopropyl-1,2,4-triazol-1-yl)-2-azaspiro[3.3]heptan-2-yl]-[5-fluoro-6-[(1-methylcyclopropyl)methoxy]-3-pyridyl]methanone] it is 52.2 nM.
Compound `CC1(COc2ncc(C(=O)N3CC4(CC(n5cnc(C6CC6)c5)C4)C3)cc2F)CC1` [Example 30] yielded an IC50 of 108 nM.
`O=C(c1cnc(OCC2(C(F)(F)F)CC2)nc1)N1CC2(CC(n3cnc(C4CC4)n3)C2)C1` [Example 31, [6-(3-cyclopropyl-1,2,4-triazol-1-yl)-2-azaspiro[3.3]heptan-2-yl]-[2-[[1-(trifluoromethyl)cyclo-propyl]methoxy]pyrimidin-5-yl] methanone] had an IC50 of 353 nM.
